Like-named read-outs stand apart in the source and are kept apart here.
Legend:
human NK3 receptor [1] = target: T1, human NK3 receptor (Homo sapiens, UniProt P29371); assay: NK3 receptor binding assay (SPA-based competition binding with 125I-NKB, membranes of BHK cells)
T1 construct: expressed in transfected cells; membranes prepared from them
T1 sequence (P29371 1-465): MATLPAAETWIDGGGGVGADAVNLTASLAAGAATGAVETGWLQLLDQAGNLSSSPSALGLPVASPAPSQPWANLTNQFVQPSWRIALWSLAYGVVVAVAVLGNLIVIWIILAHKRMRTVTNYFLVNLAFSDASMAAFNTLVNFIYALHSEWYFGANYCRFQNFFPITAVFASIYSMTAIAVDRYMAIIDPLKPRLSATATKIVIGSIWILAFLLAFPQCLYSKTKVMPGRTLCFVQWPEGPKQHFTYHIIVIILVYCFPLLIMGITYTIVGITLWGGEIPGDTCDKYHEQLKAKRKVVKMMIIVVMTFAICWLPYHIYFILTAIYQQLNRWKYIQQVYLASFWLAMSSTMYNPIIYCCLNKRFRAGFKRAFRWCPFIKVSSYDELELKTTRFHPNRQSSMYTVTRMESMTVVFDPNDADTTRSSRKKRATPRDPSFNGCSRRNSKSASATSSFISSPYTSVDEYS
Procedure: Membranepreparation: BHK cells stably expressing the human NK3 receptor were seeded in harvesting plates in Dulbeccos MEM containing GlutaMax (862 mg/l), 1 mM sodium pyruvate, 10% fetal calf serum, 1% Pen/Strep, I mg/ml G418 and were grown at 34 °C in a humidified atmosphere containing 10% CO2. To increase receptor expression, 10 µM trichotatin A was added to the media 24 hours before harvest of the cells at a confluency of app 90%. Prior to the harvesting, the cells were washed twice with PBS without Mg^2+ og Ca^2+ and subsequently scrapped of in 10 ml PBS pr harvesting plate. The cells suspension were centrifuged at 1500xG in three minutes before resuspension in 15 mM Tris-HCl pH 7,5 buffer containing 2 mM MgCl2; 0,3 mM EDTA and 1 mM EGTA (buffer A). The cell suspention was homogenised and subsequently centrifuged at 40000xG in 30 minutes. The membrane-pellet was resuspended in buffer A containing 250 mM sucrose, alliquoted and stored at - 80°C.
Affinity assay description: The assay was performed as a SPA-based competition-binding assay in a 50 mM Tris pH 7.4 assay buffer containing 120 mM NaCl, 3 mM MnCl2, 40 µg/ml bacitracin, 2 µg/ml Chymostatin, 1 µg/ml Phosphoramidon and 4 µg/ml Leupeptin. App 0.02 nM ^125I-NKB was mixed with test compounds before addition of 4 µg of the homogenised NK3 membrane preparation and 0,025 mg SPA beads in a total volume of 60 µl. The assay plate was subsequently under agitation incubated for 90 min at RT. The plate was centrifugated 10 minutes at 500xG and counted in a topcounter 5 minuttes pr well.
The non-specific binding constituted app 5 % of the total binding.
Data points were expressed in percent of the specific binding of ^125I-NKB and the IC50 values (concentration causing 50 percent inhibition of ^125I-NKB specific binding) were determined by non-linear regression analysis using a sigmoidal variable slope curve fitting. The dissociation constant (Ki) were calculated from the Cheng Prusoff equation (Ki = IG50/(1+(L/KD))), where the concentration of free radioligand L is approximated to the concentration of added ^125I-NKB in the assay (app 0,02 nM).
The KD of ^125I-NKB was determined to be 0,7 nM from three independent saturation assays each performed with duplicate determinations. Bmax was app 2 pmol/mg.

human NK3 receptor [2] = target: T1, human NK3 receptor; assay: NK3 receptor efficacy and potency assay (FLIPR Calcium 4 assay, BHK cells; agonist and antagonist mode versus NKB); assay type: cell-based; conditions: read-out: Potency cIC50
Procedure: BHK cells stably expressing the human NK3 receptor were seeded in 100 µl media in black walled clear-base 96-wells plates (Costar) aiming at a confluency of 95-100% at the day of assay. The assay was performed according to the FLIPR Calcium 4 Assay kit (Molecular Devices). At the day of the assay, the media was removed and the cells were washed once with the HBSS buffer (Hanks BSS buffer, pH 7,4 containing 20 mM Hepes) before 100 µl of a solution of the calcium assay reagent dissolved in the HBSS buffer containing 2,5 mM probinicid was added to the cells. The plates were incubated for 60 min at 34°C, 10% CO2 before use in the FLIPR for examination of fluorescence.
For efficacy and potency evaluation of compounds, these were diluted in HBSS buffer prior to test. For test of agonist activity, 25 µl of the diluted compound solution was added and the plate was analyzed for 5 minutes in the FLIPR. […] The plates were subsequently analyzed for 5 minutes before the assay was terminated. The maximal increase in fluorescence over background following each ligand addition was determined.

[3] = table of Example 10, affinity obtained as described in Example 9, read-out: Affinity Ki
[4] = Ki for the NK3 receptor, table of Example 9, 125I-NKB competition binding, read-out: Ki

With `CC[C@H](NC(=O)c1c(C)n(-c2ccccc2)c(=O)c2c(Cl)cccc12)c1ccccc1` [Example 1i, 8-Chloro-3-methyl-1-oxo-2-phenyl-1,2-dihydro-isoquinoline-4-carboxylic acid ((S)-1-phenyl-propyl)-amide] the Ki (human NK3 receptor [1]; [3]) was 41 nM and the IC50 (human NK3 receptor [2]) was 130 nM.

Work on `CC(C)(C)N1CCN(Cc2c(C(=O)N[C@H](c3cccc(F)c3)C3CC3)c3cccc(F)c3c(=O)n2-c2ccccc2)CC1` [Example 2ll, 3-(4-tert-Butyl-piperazin-1-ylmethyl)-8-fluoro-1-oxo-2-phenyl-1,2-dihydro-isoquinoline-4-carboxylic acid [(S)-cyclopropyl-(3-fluoro-phenyl)-methyl]-amide] yielded a Ki (human NK3 receptor [1]; [3]) of 7.9 nM and an IC50 (human NK3 receptor [2]) of 6.3 nM.

`CC[C@H](NC(=O)c1c(CN2CCN(CCN3CCOCC3)CC2)n(-c2ccccc2)c(=O)c2ccccc12)c1ccccc1` [Example 2bm, 3-[4-(2-Morpholin-4-yl-ethyl)-piperazin-1-ylmethyl]-1-oxo-2-phenyl-1,2-dihydro-isoquinoline-4-carboxylic acid ((S)-1-phenyl-propyl)-amide] showed a Ki (human NK3 receptor [1]; [4]) of 8.2 nM, a Ki (human NK3 receptor [1]; [3]) of 8.8 nM and an IC50 (human NK3 receptor [2]) of 14 nM.

`O=C(NC(c1cccc(F)c1)C1CC1)c1c(CN2CCN(CCN3CCOCC3)CC2)n(-c2ccccc2)c(=O)c2ccccc12` (centres unmarked) [Example 2hs] showed a Ki (human NK3 receptor [1]; [4]) of 5.3 nM, a Ki (human NK3 receptor [1]; [3]) of 7.5 nM and an IC50 (human NK3 receptor [2]) of 21 nM.

Molecule `CC[C@H](NC(=O)c1c(CN2CCN(c3ccc4ncccc4c3)CC2)n(-c2ccccc2)c(=O)c2ccccc12)c1ccccc1` [Example 2fm, 1-Oxo-2-phenyl-3-(4-quinolin-6-yl-piperazin-1-ylmethyl)-1,2-dihydro-isoquinoline-4-carboxylic acid ((S)-1-phenyl-propyl)-amide] has a Ki (human NK3 receptor [1]; [3]) of 33 nM and an IC50 (human NK3 receptor [2]) of 140 nM.

`Cc1c(C(=O)N[C@H](c2cccc(F)c2)C2CC2)c2cccc(Cl)c2c(=O)n1-c1ccccc1` [Example 1t, 8-Chloro-3-methyl-1-oxo-2-phenyl-1,2-dihydro-isoquinoline-4-carboxylic acid [(S)-cyclopropyl-(3-fluoro-phenyl)-methyl]-amide] was tested, and the Ki (human NK3 receptor [1]; [3]) was 27 nM and the IC50 (human NK3 receptor [2]) was 44 nM.

With `CC[C@H](NC(=O)c1c(CN2CC[C@H](O)C2)n(-c2ccccc2)c(=O)c2ccccc12)c1ccccc1` [Example 2es, 3-((S)-3-Hydroxy-pyrrolidin-1-ylmethyl)-1-oxo-2-phenyl-1,2-dihydro-isoquinoline-4-carboxylic acid ((S)-1-phenyl-propyl)-amide] the Ki (human NK3 receptor [1]; [3]) was 140 nM and the IC50 (human NK3 receptor [2]) was 240 nM.

Work on `CC[C@H](NC(=O)c1c(CN2CCC(O)(c3cccc(OC)c3)CC2)n(-c2ccccc2)c(=O)c2c(Cl)cccc12)c1ccccc1` [Example 2kn, 8-Chloro-3-[4-hydroxy-4-(3-methoxy-phenyl)-piperidin-1-ylmethyl]-1-oxo-2-phenyl-1,2-dihydro-isoquinoline-4-carboxylic acid ((S)-1-phenyl-propyl)-amide] yielded a Ki (human NK3 receptor [1]; [3]) of 8.7 nM and an IC50 (human NK3 receptor [2]) of 41 nM.

`CC[C@H](NC(=O)c1c(CN2CCN(C(C)(C)C)CC2)n(-c2ccccc2)c(=O)c2c(F)cccc12)c1ccccc1` [Example 2lj, 3-(4-tert-Butyl-piperazin-1-ylmethyl)-8-fluoro-1-oxo-2-phenyl-1,2-dihydro-isoquinoline-4-carboxylic acid ((S)-1-phenyl-propyl)-amide] was tested, and the Ki (human NK3 receptor [1]; [3]) was 18 nM and the IC50 (human NK3 receptor [2]) was 16 nM.

With `CC[C@H](NC(=O)c1c(CN2CCCNCC2)n(-c2ccccc2)c(=O)c2c(Cl)cccc12)c1ccccc1` [Example 2kh, 8-Chloro-3-[1,4]diazepan-1-ylmethyl-1-oxo-2-phenyl-1,2-dihydro-isoquinoline-4-carboxylic acid ((S)-1-phenyl-propyl)-amide] the Ki (human NK3 receptor [1]; [3]) was 82 nM and the IC50 (human NK3 receptor [2]) was 120 nM.

In the case of `O=C(NC(c1cccc(F)c1)C1CC1)c1c(CN2CCN(CCN3CCCCC3)CC2)n(-c2ccccc2)c(=O)c2ccccc12` (centres unmarked) [Example 2hu, 1-Oxo-2-phenyl-3-[4-(2-piperidin-1-yl-ethyl)-piperazin-1-ylmethyl]-1,2-dihydro-isoquinoline-4-carboxylic acid [cyclopropyl-(3-fluoro-phenyl)-methyl]-amide], the Ki (human NK3 receptor [1]; [3]) is reported as 6.2 nM and the IC50 (human NK3 receptor [2]) is reported as 29 nM.

With `Cc1c(C(=O)N[C@H](c2cccc(F)c2)C2CCC2)c2cccc(Cl)c2c(=O)n1-c1ccccc1` [Example 1bh, 8-Chloro-3-methyl-1-oxo-2-phenyl-1,2-dihydro-isoquinoline-4-carboxylic acid [(S)-cyclobutyl-(3-fluoro-phenyl)-methyl]-amide] the Ki (human NK3 receptor [1]; [3]) was 21 nM and the IC50 (human NK3 receptor [2]) was 81 nM.

Molecule `CC[C@H](NC(=O)c1c(CN2CCCC2=O)n(-c2ccccc2)c(=O)c2ccccc12)c1ccccc1` [Example 3a, 1-Oxo-3-(2-oxo-pyrrolidin-1-ylmethyl)-2-phenyl-1,2-dihydro-isoquiline-4-carboxylic acid ((S)-1-phenyl-propyl)-amide] has a Ki (human NK3 receptor [1]; [4]) of 72 nM, a Ki (human NK3 receptor [1]; [3]) of 88 nM and an IC50 (human NK3 receptor [2]) of 270 nM.

In the case of `CCC(CO)NCc1c(C(=O)N[C@@H](CC)c2ccccc2)c2ccccc2c(=O)n1-c1ccccc1` (stereo partly drawn) [Example 2eg, 3-[(1-Hydroxymethyl-propylamino)-methyl]-1-oxo-2-phenyl-1,2-dihydro-isoquinoline-4-carboxylic acid ((S)-1-phenyl-propyl)-amide], the Ki (human NK3 receptor [1]; [3]) is reported as 240 nM and the IC50 (human NK3 receptor [2]) is reported as 610 nM.

Work on `CC[C@H](NC(=O)c1c(CN2CCC3(CC2)OCCO3)n(-c2ccccc2)c(=O)c2ccccc12)c1ccccc1` [Example 2u, 3-(1,4-Dioxa-8-aza-spiro[4.5]dec-8-ylmethyl)-1-oxo-2-phenyl-1,2-dihydro-isoquinoline-4-carboxylic acid ((S)-1-phenyl-propyl)-amide] yielded a Ki (human NK3 receptor [1]; [3]) of 90 nM and an IC50 (human NK3 receptor [2]) of 96 nM.

`Cc1c(C(=O)N[C@H](c2ccccc2)C2CC2)c2cccc(F)c2c(=O)n1-c1ccccc1` [Example 6c, 8-Fluoro-3-methyl-1-oxo-2-phenyl-1,2-dihydro-isoquinoline-4-carboxylic acid ((S)-cyclopropyl-phenyl-methyl)-amide] gave a Ki (human NK3 receptor [1]; [3]) of 23 nM and an IC50 (human NK3 receptor [2]) of 24 nM.

`O=C(N[C@H](c1cccc(F)c1)C1CC1)c1c(CN2CCCC2=O)n(-c2ccccc2)c(=O)c2c(Cl)cccc12` [Example 3d, 8-Chloro-1-oxo-3-(2-oxo-pyrrolidin-1-ylmethyl)-2-phenyl-1,2-dihydro-isoquinoline-4-carboxylic acid [(S)-cyclopropyl-(3-fluoro-phenyl)-methyl]-amide] showed a Ki (human NK3 receptor [1]; [3]) of 16 nM and an IC50 (human NK3 receptor [2]) of 46 nM.

`O=C(NC(c1cccc(F)c1)C1CC1)c1c(CN2CCN(CCc3ccccc3)CC2)n(-c2ccccc2)c(=O)c2ccccc12` (centres unmarked) [Example 2hq, 1-Oxo-3-(4-phenethyl-piperazin-1-ylmethyl)-2-phenyl-1,2-dihydro-isoquinoline-4-carboxylic acid [cyclopropyl-(3-fluoro-phenyl)-methyl]-amide] was tested, and the Ki (human NK3 receptor [1]; [3]) was 10 nM and the IC50 (human NK3 receptor [2]) was 44 nM.

Work on `O=C(NC(c1cccc(F)c1)C1CC1)c1c(CN2CCC(O)(c3ccncc3)CC2)n(-c2ccccc2)c(=O)c2ccccc12` (centres unmarked) [Example 2hx, 3-(4-Hydroxy-3,4,5,6-tetrahydro-2H-[4,4']bipyridinyl-1-ylmethyl)-1-oxo-2-phenyl-1,2-dihydro-isoquinoline-4-carboxylic acid [cyclopropyl-(3-fluoro-phenyl)-methyl]-amide] yielded a Ki (human NK3 receptor [1]; [3]) of 9.3 nM and an IC50 (human NK3 receptor [2]) of 68 nM.

Reference: patent EP2150534B1, “ISOQUINOLINONE DERIVATIVES AS NK3 ANTAGONISTS” (H. Lundbeck A/S, priority 2007, dated 2008)
